From US20120141381A1, “Methods For Loading Contrast Agents Into A Liposome” (Duke University Office of Technology & Venture, priority 2009, published 2012) come the findings set out here.

A short description of this data set: Measurement of relaxivity of Gd-HP-DO3A-Dox-LTSL at 1.5T. The class given is physicochemical. The following applies: free contrast agent. The method, then: T1 of all of the solutions was calculated from the fit of signal intensity vs. inversion time in images obtained with a T1-weighted inversion recovery sequence with variable inversion time (T1=50, 75, 100, 150, 300, 450, 600, 900, 1050 ms). Relaxivity was obtained as the slope of 1/T1 vs. Gd-HP-DO3A concentration. All imaging was performed using a clinical 1.5T MR scanner (Philips Medical Systems, Best, The Netherlands).

With `CC(O)CN1CCN(CC(=O)[O-])CCN(CC(=O)[O-])CCN(CC(=O)[O-])CC1.[Gd+3]` (stereo not shown) [ProHance®, gadolinium complex of 10-(2-hydroxy-propyl)-1,4,7,10-tetraazacyclododecane-1,4,7-triacetic acid], the “relaxivity (slope of 1/T1 vs concentration)” value worked out at 4.05 ± 0.14 mM⁻¹ s⁻¹.
